Columns and labels:
MO4 cells [1] = experiment: Chick heart invasion assay; format: cell-based, murine; settings: 1 μg/ml, invasion of MO4 cells into embryonic chick heart
Method: Aggregates of MO4 cells were prepared by diluting single dissociated cells to appropriate concentrations in 6 ml complete growth medium in a 50 ml Erlenmeyer flask and incubated on a Gyrotory shaker at 37° C. and 70 rpm in a humidified atmosphere with 10% CO2 in air for 72 h. The aggregates were confronted overnight on top of semi-solid agar medium with precultured heart fragments (PHF, diameter 0.4 mm) prepared from 9-day-old chick embryos. Suspension organotypic cultures were incubated in 1.5 ml culture medium with or without a test compound on a Gyrotory shaker at 120 rpm under a controlled atmosphere containing 10% CO2 in air. Cells were fixed in Bouin-Hollande's solution and embedded in paraffin for histologic determination of cell invasiveness. Consecutive sections were stained with haematoxylin-eosin. Invasion is defined as the progressive occupation of PHF by the confronting test cells. Microscopic analysis of all consecutive sections from a confronting culture allowed the reconstruction of the interaction between the cell aggregate and the PHF in three dimensions.
The observation of different patterns of interaction has led to the following scale:
Grade I and II are observed with non-invasive cell populations, while grade III an IV are typical of invasion. To evaluate progression with time, histological analysis was done on confronting cultures fixed after different incubation periods.
MO4 cells were confronted with precultured heart fragments and the organotypic cultures were incubated in suspension in the presence of DMSO (solvent control), JC168 or paclitaxel (positive control) for 2-4 days.

MDA-MB231 GFP-LUC cells = experiment: Collagen type I invasion assay; format: cell-based, human; settings: for Histological sections of the collagen gels: cells on top of the gel: after 14 days
Method: Invading cells were counted by phase-contrast microscopy as cells with extensions penetrating into the gel. (A) Invasion was calculated as the percentage of invading cells per high powered field (mean and standard deviation, n=10). Microphotographs of representative cultures of MDA-MB231 GFP-LUC cells treated with DMSO (B), 1 μg/ml JC168 (C), and 1 μg/ml paclitaxel (D) after 24 hours of incubation on top of a collagen type I gel. Scalebar=100 μm.
These cells are derived from a human mammary carcinoma and were stably transfected with green fluorescent protein (GFP) and luciferase (LUC).
Tissue invasion requires infiltration into an extracellular matrix (ECM) dominated by networks of collagen type I. The invasion model, presented here, consists of native, acid-extracted rat tail collagen type I containing nonhelical telopeptides situated at the N- and C-terminal ends. These telopeptides play an important role in intermolecular covalent cross-links necessary for a gel architecture presenting itself as a structural barrier to cancer cell traffic. Collagen type I solution was prepared with a final concentration of 1 mg ml^−1 collagen type I by mixing the following pre-cooled (stored at 4° C.) components: 4 volumes collagen type I (stock is 3.49 mg ml^−1), 5 volumes of calcium- and magnesium-free Hank's balanced salt solution (CMF-HBSS), 1 volume of minimal essential medium (MEM) (10×), 1 volume of 0.25 M NaHCO3, 2.65 volumes of standard medium and 0.3 volumes of 1M NaOH to make the solution alkaline. The collagen type I solution was gently poured into the wells of a 6-well plate. The experimental set-up was placed at 37° C. in a humidified atmosphere with 10% CO2 in air for at least 1 h. After gelification, a cell suspension of MDA-MB231 GFP-LUC cells was added on top of the collagen gels and incubated for 24 hours. […] Invasion is calculated as the percentage of invading cells per high powered field and is expressed as the mean and standard deviation. The number of examined fields is 10. The sections were stained with hematoxylin-eosin.
MDA-MB231 GFP-LUC cells were treated with DMSO (solvent control), JC168, or paclitaxel (positive control) or left untreated (control) and incubated on a collagen type I gel. After 24 hours of incubation, invasion into the collagen was evaluated by phase-contrast microscopy. […] From this we can conclude that the number of invaded cells is clearly lower in the treated cultures.

[2] = system: cytoplasmic microtubule complex; experiment: Immunocytochemistry of the cytoplasmic microtubule complex; format: cell-based, rat kangaroo (Potorous tridactylus); settings: PtK2 cells
Method: The PtK2 cell line was established from the kidney tissue of an adult male rat kangaroo (Potorous tridactylus).
Cells were seeded on glass coverslips in culture medium, supplemented with fetal bovine serum, at an initial concentration of 10,000/coverslip. After incubation overnight to allow spreading, treatments started at 37° C. for 1, 4 or 24 h. Cultures were then rinsed with phosphate-buffered saline and fixed in methanol at −20° C. The primary rabbit anti-tubulin polyclonal antibody was a gift from Dr. De Brabander (Janssen Life Sciences, Beerse, Belgium).
PtK2 cells were treated with DMSO (solvent control), JC168, or paclitaxel (positive control). After 1 hour, 4 hours, and 24 hours of incubation, cells were fixed and stained for the cytoplasmic microtubule complex.

MO4 cells [3] = experiment: MTT assay (MTT conversion); format: cell-based, murine; settings: 4 days
Method: (§1) FIG. 3: JC168 inhibits MTT conversion. MO4 cells were treated with dimethyl sulfoxide (DMSO, solvent control), 0.001, 0.01, 0.1 or 1 μg/ml JC168 for 4 days. Then, 3-(4,5-dimethylthiazol-2-yl)-2,5-diphenyltetrazolium bromide was added and the cultures were incubated to allow the cells to reduce the MTT into formazan. The formazan was dissolved and optical density was measured. Data represent optical density (OD) as a percentage of solvent control (mean and standard deviation, n=6).
as §1, with “FIG. 4: Comparison of” for “FIG. 3:”, “JC168 and paclitaxel to inhibit” for “JC168 inhibits”, “control), 1 μg/ml JC168” for “control), 0.001, 0.01, 0.1”, “μg/ml paclitaxel” for “μg/ml JC168”
As test cells for functional assays MO4 cells were used, which are murine virally transformed fibrosarcoma-like cells. […]
MTT (3-(4,5-Dimethylthiazol-2-yl)-2,5-diphenyltetrazolium bromide, a yellow tetrazole), was reduced to purple formazan in living cells. […] The absorbance of this colored solution was quantified by measuring it at a wavelength between 500 and 600 nm by a spectrophotometer. […]

MO4 cells [4] = experiment: Sulforhodamine B assay (cell growth); format: cell-based, murine; settings: 4 days
Method: (§2) MO4 cells were treated with dimethyl sulfoxide (DMSO, solvent control), 0.001, 0.01, 0.1 or 1 μg/ml JC168 for 4 days. After said 4 days of incubation the cells were fixed and stained with sulforhodamine B to determine cellular protein content. Excess dye was removed by washing. Protein-bound dye was dissolved and optical density was measured. Data represent optical density (OD) as a percentage of solvent control (mean and standard deviation, n=6).
as §2, with “FIG. 2: Comparison of JC168 and paclitaxel to inhibit cell growth. MO4” for “MO4”, “1 μg/ml JC168” for “0.001, 0.01, 0.1”, “paclitaxel” for “JC168”, “n=6). […]” for “n=6).”
The sulforhodamine B (SRB) assay was used for cell density determination. […] The method allows a large number of samples to be tested within a few days, and is a quantitative assay for growth inhibition by microtubule inhibitors. […] The protein-bound dye was dissolved in 10 mM Tris base solution for OD determination at 510 nm using a microplate reader. […]

Structure (SMILES)	Number of organotypic cultures classified Grade I (MO4 cells [1]; incubation 2 days)	Number of organotypic cultures classified Grade II (MO4 cells [1]; incubation 3 days)	Number of organotypic cultures classified Grade II (MO4 cells [1]; incubation 4 days)	Number of organotypic cultures classified Grade III (MO4 cells [1]; incubation 4 days)	Potency to inhibit invasion in collagen type I as compared to paclitaxel (MDA-MB231 GFP-LUC cells; MDA-MB231 GFP-LUC cells, 24 hours) [%]	Effect on invasion into collagen type I (MDA-MB231 GFP-LUC cells; MDA-MB231 GFP-LUC cells, 24 hours, FIG. 5)	Histological sections of the collagen gels: cells on top of the gel (MDA-MB231 GFP-LUC cells)	Effect on the cytoplasmic microtubule complex, 1 hour ([2]; 0.1 μg/ml)	Effect on the cytoplasmic microtubule complex, 4 hours ([2]; 0.1 μg/ml)	Effect on the cytoplasmic microtubule complex, 24 hours ([2]; 0.1 μg/ml)	Effect on the cytoplasmic microtubule complex, 1 hour ([2]; 1.0 μg/ml)	Effect on the cytoplasmic microtubule complex, 4 hours ([2]; 1.0 μg/ml)	Effect on the cytoplasmic microtubule complex, 24 hours ([2]; 1.0 μg/ml)	Potency to inhibit MTT conversion as compared to paclitaxel (MO4 cells [3]; 1 μg/ml each, FIG. 4) [%]	Effect on MTT conversion into formazan (MO4 cells [3]; 0.001-1 μg/ml, FIG. 3)	Potency to inhibit cell growth as compared to paclitaxel (MO4 cells [4]; 1 μg/ml each, FIG. 2) [%]	Effect on cell growth (sulforhodamine B, words) (MO4 cells [4]; 0.001-1 μg/ml, FIG. 1)
CC[C@H](/C=C(/C)[C@@H]1C[C@@H](OC)C[C@H](O)C(C)(C)c2cccc(c2)C[C@@H](O)C(O)C(=O)O1)CO (stereo partly drawn) [JC168, (1′Z,3R,3′R,4S,7S,9S,11S)-3,4,11-Trihydroxy-7-(3′-hydroxymethyl-1′-methylpent-1′-enyl)-9-methoxy-12,12-dimethyl-6-oxabicyclo[11.3.1]heptadeca-1(17),13,15-trien-5-one]	n = 5	n = 5	n = 3	n = 3	89	inhibits invasion	low number of cells on top of the gel	disturbed	disturbed	disturbed	disturbed	disturbed	disturbed	3	inhibits the conversion	5	inhibits cell growth
CC(=O)O[C@H]1C(=O)[C@@]2(C)[C@H]([C@H](OC(=O)c3ccccc3)[C@]3(O)C[C@H](OC(=O)[C@H](O)[C@@H](NC(=O)c4ccccc4)c4ccccc4)C(C)=C1C3(C)C)[C@]1(OC(C)=O)CO[C@@H]1C[C@@H]2O [paclitaxel, reference compound]			n = 5				low number of cells on top of the gel	normal	disturbed	disturbed	disturbed	disturbed	disturbed				
